Assay results as given in patent EP0041644B1 (priority 1980, dated 1981).

Assays:
B16 Melanoma = B16 Melanoma - Test 2 (ip tumor brei); format: in vivo, mice; conditions: QD +9
Lewis Lung Carcinoma = Lewis Lung Carcinoma - Test 1 (ip, delayed therapy); format: in vivo, mice
L1210 Leukemia = L1210 Leukemia - Test 1 (survival of tumor-bearing mice); format: in vivo
Excerpt: This evaluation of the ammonium salt finds the drug to be active against L1210 (ip) leukemia when administered ip one day post-implant of 10^6 L1210 cells (maximum T/C was 164%). […] The vehicle for the ammonium salt was water.

[1] = 0.5 mg/kg/day ip, qd 1→9, in H2O
[2] = 0.5 mg/kg/day ip, qd 1→9, in saline
[3] = 1 mg/kg/day ip, qd 1→9, in saline

## N.N.[Cl][Pt][Cl] [Cis-DDP, cis-diammine dichloroplatinum (II)]
B16 Melanoma; 0.4 mg/kg/day ip
  Average Weight Change: -2.0 g
  Effect MST % T/C: 121 % T/C
  MST Days: 25.0 days
  Survivors Day 10 (60): 8/10
B16 Melanoma; 0.8 mg/kg/day ip
  Average Weight Change: -1.5 g
  Effect MST % T/C: 139 % T/C
  MST Days: 38.5 days
  Survivors Day 10 (60): 10/10
B16 Melanoma; 1.6 mg/kg/day ip
  Average Weight Change: -2.7 g
  Effect MST % T/C: 173 % T/C
  MST Days: 35.5 days
  Survivors Day 10 (60): 10/10
Lewis Lung Carcinoma; 0.4 mg/kg/inj ip, qd 5→13
  Av. Wt. Change,g Day 9: -0.4 g
  Effect MST %TC: 124 %TC
  MST Days: 15.5 days
  Survivors Day 9(48): 6/6
Lewis Lung Carcinoma; 0.8 mg/kg/inj ip, qd 5→13
  Av. Wt. Change,g Day 9: -0.6 g
  Effect MST %TC: 136 %TC
  MST Days: 17.0 days
  Survivors Day 9(48): 5/6
Lewis Lung Carcinoma; 1.6 mg/kg/inj ip, qd 5→13
  Av. Wt. Change,g Day 9: -1.8 g
  Effect MST %TC: 184 %TC
  MST Days: 23.0 days
  Survivors Day 9(48): 6/6
Lewis Lung Carcinoma; 2 mg/kg/inj ip, d. 5, 9&13
  Av. Wt. Change,g Day 9: +0.8 g
  Effect MST %TC: 152 %TC
  MST Days: 19.0 days
  Survivors Day 9(48): 6/6
Lewis Lung Carcinoma; 2 mg/kg/inj iv, d. 5,9&13
  Av. Wt. Change,g Day 9: +0.6 g
  Effect MST %TC: 104 %TC
  MST Days: 13.0 days
  Survivors Day 9(48): 6/6
Lewis Lung Carcinoma; 2.4 mg/kg/inj ip, qd 5→13
  Av. Wt. Change,g Day 9: -2.4 g
  Effect MST %TC: 212 %TC
  MST Days: 26.5 days
  Survivors Day 9(48): 6/6
Lewis Lung Carcinoma; 4 mg/kg/inj ip, d. 5, 9&13
  Av. Wt. Change,g Day 9: -0.3 g
  Effect MST %TC: 168 %TC
  MST Days: 21.0 days
  Survivors Day 9(48): 6/6
Lewis Lung Carcinoma; 4 mg/kg/inj iv, d. 5,9&13
  Av. Wt. Change,g Day 9: -0.7 g
  Effect MST %TC: 120 %TC
  MST Days: 15.0 days
  Survivors Day 9(48): 6/6
Lewis Lung Carcinoma; 6 mg/kg/inj ip, d. 5, 9&13
  Av. Wt. Change,g Day 9: -0.8 g
  Effect MST %TC: 220 %TC
  MST Days: 27.5 days
  Survivors Day 9(48): 6/6
Lewis Lung Carcinoma; 6 mg/kg/inj iv, d. 5,9&13
  Av. Wt. Change,g Day 9: -1.1 g
  Effect MST %TC: 108 %TC
  MST Days: 13.5 days
  Survivors Day 9(48): 6/6
Lewis Lung Carcinoma; 8 mg/kg/inj ip, d. 5, 9&13
  Av. Wt. Change,g Day 9: -2.7 g
  Effect MST %TC: 128 %TC
  MST Days: 16.0 days
  Survivors Day 9(48): 6/6
Lewis Lung Carcinoma; 8 mg/kg/inj iv, d. 5,9&13
  Av. Wt. Change,g Day 9: -0.7 g
  Effect MST %TC: 112 %TC
  MST Days: 14.0 days
  Survivors Day 9(48): 6/6
Lewis Lung Carcinoma; given ip, therapy from day 5
  maximum T/C: 212-220%
Lewis Lung Carcinoma; given iv, therapy from day 5
  T/C: inactive
L1210 Leukemia; [1]
  Average Weight Change: −3.8
  Effect MST % T/C: 143 % T/C
  MST Days: 10.0 days
  Survivors Day 5(30): 6/6
L1210 Leukemia; [2]
  Average Weight Change: +1.5
  Effect MST % T/C: 100 % T/C
  MST Days: 7.0 days
L1210 Leukemia; 1 mg/kg/day ip, qd 1→9, in H2O
  Average Weight Change: −3.7
  Effect MST % T/C: 114 % T/C
  MST Days: 8.0 days
  Survivors Day 5(30): 6/6
L1210 Leukemia; [3]
  Average Weight Change: −0.9
  Effect MST % T/C: 150 % T/C
  MST Days: 10.5 days
